Results: the supplement of paper PMC10307832

What was measured:
Assay in all cases: relative viability (nuclei count vs DMSO), 5 days (fraction); higher = more cells survive
XMD14-99 + Olaparib = compound: CN1CCN(CC1)C2=CC(=C(C=C2)NC3=NC(=C(S3)C(=O)C4=C(C=CC=C4Cl)Cl)N)OC [XMD14-99] + O=C(c1cc(Cc2n[nH]c(=O)c3ccccc23)ccc1F)N1CCN(C(=O)C2CC2)CC1 [Olaparib] (partner 8 µM)
Summary of the method: (§1)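 Five library-drug doses in √10 steps were combined with a fixed anchor-drug dose, or a single drug was given alone, by pin tool to lung cancer cell lines in 1536-well plates the day after seeding. Nuclei were stained and counted after 5 days. Relative viability is the nuclei count in treated wells over that in vehicle wells, taken as the median of duplicate plates.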

AZD1208 + Decitabine = compound: N[C@@H]1CCCN(c2c(/C=C3\SC(=O)NC3=O)cccc2-c2ccccc2)C1 [AZD1208] + Nc1ncn([C@H]2C[C@H](O)[C@@H](CO)O2)c(=O)n1 [Decitabine] (partner 2 µM)
Summary of the method: as §1

XMD14-99 + Lapatinib = compound: CN1CCN(CC1)C2=CC(=C(C=C2)NC3=NC(=C(S3)C(=O)C4=C(C=CC=C4Cl)Cl)N)OC [XMD14-99] + CS(=O)(=O)CCNCc1ccc(-c2ccc3ncnc(Nc4ccc(OCc5cccc(F)c5)c(Cl)c4)c3c2)o1 [Lapatinib] (partner 2 µM)
Summary of the method: as §1

AZD1208 + Tozasertib = compound: N[C@@H]1CCCN(c2c(/C=C3\SC(=O)NC3=O)cccc2-c2ccccc2)C1 [AZD1208] + Cc1cc(Nc2cc(N3CCN(C)CC3)nc(Sc3ccc(NC(=O)C4CC4)cc3)n2)n[nH]1 [Tozasertib] (partner 0.1 µM)
Summary of the method: as §1

Row | Cell Line | relative viability (XMD14-99 + Olaparib; first compound 0.08 µM) | relative viability (XMD14-99 + Olaparib; first compound 0.8 µM) | relative viability (XMD14-99 + Olaparib; first compound 2.53 µM) | relative viability (XMD14-99 + Olaparib; first compound 8 µM) | relative viability (AZD1208 + Decitabine; first compound 0.08 µM) | relative viability (AZD1208 + Decitabine; first compound 0.253 µM) | relative viability (AZD1208 + Decitabine; first compound 0.8 µM) | relative viability (AZD1208 + Decitabine; first compound 2.53 µM) | relative viability (AZD1208 + Decitabine; first compound 8 µM) | relative viability (XMD14-99 + Lapatinib; first compound 0.08 µM) | relative viability (XMD14-99 + Lapatinib; first compound 0.8 µM) | relative viability (XMD14-99 + Lapatinib; first compound 2.53 µM) | relative viability (XMD14-99 + Lapatinib; first compound 8 µM) | relative viability (AZD1208 + Tozasertib; first compound 0.08 µM) | relative viability (AZD1208 + Tozasertib; first compound 0.253 µM) | relative viability (AZD1208 + Tozasertib; first compound 0.8 µM) | relative viability (AZD1208 + Tozasertib; first compound 2.53 µM) | relative viability (AZD1208 + Tozasertib; first compound 8 µM)
1 | LXF-289 | 1.06 | 1.01 | 1.11 | 0.931 | 0.36 | 0.423 | 0.378 | 0.36 | 0.289 | 0.923 | 0.885 | 0.866 | 0.704 | 0.178 | 0.158 | 0.16 | 0.131 | 0.123
2 | NCI-H23 | 0.313 | 0.325 | 0.277 | 0.225 | 0.292 | 0.285 | 0.308 | 0.329 | 0.275 | 1.08 | 1.29 | 1.14 | 0.881 | 0.4 | 0.365 | 0.336 | 0.376 | 0.272
3 | NCI-H322M | 0.807 | 0.8 | 0.75 | 0.617 | 0.669 | 0.659 | – | 0.669 | 0.713 | 0.573 | 0.583 | 0.609 | 0.598 | 0.429 | 0.492 | 0.463 | 0.463 | 0.439
4 | NCI-H358 | 0.603 | 0.773 | 0.585 | 0.312 | 0.206 | 0.188 | 0.185 | 0.207 | 0.197 | 0.45 | 0.45 | 0.317 | 0.231 | 0.109 | 0.0897 | 0.104 | 0.101 | 0.091
5 | NCI-H460 | 0.394 | 0.432 | 0.421 | 0.182 | 0.458 | 0.604 | 0.465 | 0.495 | 0.516 | 0.863 | 0.977 | 0.927 | 0.679 | 0.461 | 0.473 | 0.474 | 0.347 | 0.389
